{"source": "patent US20050002879A1", "about": "“External skin compositions” (priority 2001, published 2005)", "format_in_all_cases": "cell-based", "key": {"Human keratinocytes [1]": {"test_system": "Human keratinocytes", "assay": "Test Example 1: hyaluronic acid production test in human normal keratinocytes", "conditions": "N-acetylglucosamine 5 mmol/L, retinyl palmitate 0.0001%, retinoic acid 1.0 mmol/L; for production of hyaluronic acid increased, times as compared with the no-addition group: 24 hours; for Hyaluronic acid production promotion ratio (% ± S.D.): % of hyaluronic acid in medium without test substance, 24 hours after addition", "description": "Hyaluronic Acid Production Test to Human Normal Keratinocytes)\n(§1) Human keratinocytes (manufactured by Kurabo Industries, Ltd.) were seeded in a 24-well plate, cultured to confluence in a growth medium, and then 5 mmol/L of N-acetylglucosamine, 0.0001% of retinyl palmitate, 0.0001% of retinyl palmitate+5 mmol/L of N-acetylglucosamine, 1.0 mmol/L of retinoic acid, or 1.0 mmol/L of retinoic acid+5 mmol/L of N-acetylglucosamine were added, respectively. 24 hours after the addition, hyaluronic acid released into the medium was determined. The determination of hyaluronic acid was conducted using a commercially available hyaluronic acid determination kit (manufactured by Chugai Diagnostics Science).\nThe effects of test substances were defined as percentage (%) of the amount of hyaluronic acid in a cultured medium without a test substance."}, "Human keratinocytes [2]": {"test_system": "Human keratinocytes", "assay": "Test Example 2: hyaluronic acid production test in human keratinocytes (retinoids with or without NAG)", "conditions": "RA 1 mmol/L, ROH 1 mmol/L, RPal 0.001%, RAce 0.001%, NAG 5 mmol/L; for amount of hyaluronic acid released into the medium: n=3, 24 hours", "description": "as §1\nHyaluronic Acid Production Test to Human Keratinocytes\nIn the same manner as in Test Example 1, the test was conducted (n=3). As the test substance, 1 mmol/L of retinoic acid (hereinafter referred to as RA), 1 mmol/L of retinol (hereinafter referred to as ROH), 0.001% of retinyl palmitate (hereinafter referred to as RPal) and 0.001% of retinyl acetate (hereinafter referred to as RAce) were used, and the determination was conducted with respect to the case where 5 mmol/L of N-acetylglucosamine (hereinafter referred to as NAG) and each of the above test substances were simultaneously added. The results are shown below and in FIG. 1."}, "Human keratinocytes [3]": {"test_system": "Human keratinocytes", "assay": "Test Example 3: hyaluronic acid production promotion test in human keratinocytes (â-carotene with or without NAG)", "conditions": "â-carotene 10 mmol/L; for amount of hyaluronic acid: n=3, 24 hours", "description": "as §1\nHyaluronic Acid Production Promotion Test to Human Keratinocytes)\nIn the same manner as in Test Example 1, the test was conducted and the amount of hyaluronic acid was determined (n=3). As the test substance, 10 mmol/L of â-carotene (hereinafter referred to as âCAR), NAG, and NAG+âCAR were used. The results are shown below and in FIG. 2."}}, "data": [{"smiles": "CC(=O)N[C@H]1C(O)O[C@H](CO)[C@@H](O)[C@@H]1O", "note": "(some centres unmarked) [N-acetylglucosamine]", "values": [{"measurement": "production of hyaluronic acid increased, times as compared with the no-addition group", "setting": "Human keratinocytes [1]", "result": 1.55, "unit": "times"}, {"measurement": "Hyaluronic acid production promotion ratio (% ± S.D.)", "setting": "Human keratinocytes [1]", "result": "155 ± 11.8", "unit": "%"}, {"measurement": "production of hyaluronic acid increased, times as compared with the no-addition group", "setting": "Human keratinocytes [2]", "result": 1.1, "unit": "times"}, {"measurement": "amount of hyaluronic acid released into the medium", "setting": "Human keratinocytes [2]", "result": 0.12, "unit": "ig/well"}, {"measurement": "amount of hyaluronic acid", "setting": "Human keratinocytes [3]", "result": 0.18, "unit": "ig/well"}, {"measurement": "production of hyaluronic acid increased, times as compared with the no-addition group", "setting": "Human keratinocytes [3]", "result": 1.3, "unit": "times"}]}, {"smiles": "CC1=C(/C=C/C(C)=C/C=C/C(C)=C/C(=O)O)C(C)(C)CCC1", "note": "[retinoic acid, reference compound]", "values": [{"measurement": "production of hyaluronic acid increased, times as compared with the no-addition group", "setting": "Human keratinocytes [1]", "result": 2.5, "unit": "times"}, {"measurement": "Hyaluronic acid production promotion ratio (% ± S.D.)", "setting": "Human keratinocytes [1]", "result": "250 ± 20.8", "unit": "%"}, {"measurement": "production of hyaluronic acid increased, times as compared with the no-addition group", "setting": "Human keratinocytes [2]", "result": 3.4, "unit": "times"}, {"measurement": "amount of hyaluronic acid released into the medium", "setting": "Human keratinocytes [2]", "result": 0.37, "unit": "ig/well"}]}, {"smiles": "CC1=C(/C=C/C(C)=C/C=C/C(C)=C/CO)C(C)(C)CCC1", "note": "[retinol]", "values": [{"measurement": "production of hyaluronic acid increased, times as compared with the no-addition group", "setting": "Human keratinocytes [2]", "result": 1.4, "unit": "times"}, {"measurement": "amount of hyaluronic acid released into the medium", "setting": "Human keratinocytes [2]", "result": 0.15, "unit": "ig/well"}]}, {"smiles": "CC(=O)OC/C=C(C)/C=C/C=C(C)/C=C/C1=C(C)CCCC1(C)C", "note": "[retinyl acetate]", "values": [{"measurement": "production of hyaluronic acid increased, times as compared with the no-addition group", "setting": "Human keratinocytes [2]", "result": 1.6, "unit": "times"}, {"measurement": "amount of hyaluronic acid released into the medium", "setting": "Human keratinocytes [2]", "result": 0.18, "unit": "ig/well"}]}, {"smiles": "CCCCCCCCCCCCCCCC(=O)OC/C=C(C)/C=C/C=C(C)/C=C/C1=C(C)CCCC1(C)C", "note": "[retinyl palmitate]", "values": [{"measurement": "production of hyaluronic acid increased, times as compared with the no-addition group", "setting": "Human keratinocytes [1]", "result": 1.23, "unit": "times"}, {"measurement": "Hyaluronic acid production promotion ratio (% ± S.D.)", "setting": "Human keratinocytes [1]", "result": "123 ± 16.4", "unit": "%"}, {"measurement": "production of hyaluronic acid increased, times as compared with the no-addition group", "setting": "Human keratinocytes [2]", "result": 2.0, "unit": "times"}, {"measurement": "amount of hyaluronic acid released into the medium", "setting": "Human keratinocytes [2]", "result": 0.22, "unit": "ig/well"}]}, {"smiles": "CC1=CCCC(C)(C)C1/C=C/C(C)=C/C=C/C(C)=C/C=C/C=C(C)/C=C/C=C(C)/C=C/C1=C(C)CCCC1(C)C", "note": "(centres unmarked) [â-carotene]", "values": [{"measurement": "amount of hyaluronic acid", "setting": "Human keratinocytes [3]", "result": 0.16, "unit": "ig/well"}, {"measurement": "production of hyaluronic acid increased, times as compared with the no-addition group", "setting": "Human keratinocytes [3]", "result": 1.1, "unit": "times"}]}]}
